# Data as given in patent US8492346B2, “Methods of use of epsilon inhibitor compounds for the attenuation of pain” (KAI Pharmaceuticals, Inc., priority 2007, dated 2013).
# “Also recorded” adds a separate entry of the source. Where two headings read alike, the source gives them in different places. Marks after values point to notes of the source that are not given here.
# Key:
# [1] = Rat pharmacokinetics, plasma levels by sandwich-based ELISA; assay type: in vivo
# [2] = Dog toxicokinetics and tissue levels, 5-day subcutaneous infusion; details: for Tissue level, Dose Site Muscle, Mean / Tissue level, Dose Site Skin, Mean / Tissue level, Kidney, Mean / Tissue level, Liver, Mean / Tissue level, Lung, Mean / Tissue level, Peripheral Nerve, Mean / Tissue level, Skeletal Muscle, Mean / Tissue level, Spinal Cord, Mean / Tissue level, Brain, Mean: 25 mg/kg/day sc infusion five days
# Description: The pharmacokinetics of KAI-1678 are being studied in rats administered the compound as an intravenous bolus and infusion or as a subcutaneous bolus and infusion. The toxicokinetics of KAI-1678 are being studied in dogs administered the compound as a subcutaneous infusion as part of the toxicity studies. In these studies, plasma levels of KAI-1678 have been determined using a sandwich-based ELISA assay developed at KAI Pharmaceuticals. The lower limit of quantitation of this assay is approximately 0.3 ng/mL. A similar assay has been developed to measure tissue levels of KAI-1678.
# As part of a range-finding toxicology study, 6 beagle dogs (one per sex per group) were administered continuous subcutaneous infusions of KAI-1678 for 5 days at dose levels of 3, 8 and 25 mg/kg/day. Blood samples were collected at various times on Day 1 (start of infusion) and Day 6 (after the end of infusion).
# As part of this study, tissues were harvested from a subset of the animals at the end of dosing.
# [3] = Rat pharmacokinetics, plasma levels by sandwich-based ELISA; assay type: in vivo; remark: listed apart in the source
# Experimental: To initially characterize the pharmacokinetics of KAI-1678 in rats, male rats were administered KAI-1678 at doses of 100 and 1,000 mcg/rat (˜300 and ˜3,000 mcg/kg) as an IV bolus injection via the tail vein. Blood samples were withdrawn periodically for up to two hours following the injection for plasma analysis of KAI-1678 levels. There were three and two animals in the 100 and 1,000 mcg dose groups, respectively, and there was consistency in KAI-1678 plasma concentrations between animals in each dose group.
# In the experiment shown in FIG. 29, male rats were administered KAI-1678 as a subcutaneous bolus injection (200 microL into the left hindleg) at doses of 25 or 250 mcg/animal (approximately 80 and 800 mcg/kg, respectively). Blood samples were taken at various time points over two hours after administration of the compound to determine plasma concentrations of KAI-1678. There were three and four animals in the 25 and 250 mcg/animal dose groups, respectively, and the KAI-1678 plasma concentration measurements were consistent between animals in each dose group. Cmax occurred within 10 minutes after injection and increased in a dose-proportional manner over the two doses tested.
# In the experiment shown in FIG. 30, male rats were administered KAI-1678 as a continuous subcutaneous infusion for 2 hours at doses of 19 and 190 mcg/kg/hr. Blood samples were taken at various time points throughout the infusion and for 1 hour after the end of infusion to determine plasma concentrations of KAI-1678. There were two animals per dose group and the plasma KAI-1678 concentration measurements were consistent between animals in each dose group. At the lower dose rate (19 mcg/kg/hr), plasma concentrations reached steady state (˜3 ng/mL) by 60 minutes and remained relatively constant throughout the rest of the infusion. […] At both dose rates, plasma concentrations of KAI-1678 dropped quickly after the end of infusion although compound was still detectable at both dose levels one hour after the end of infusion.
# [4] = system: carrageenan-induced mechanical hyperalgesia; test: Carrageenan inflammatory pain model, Randall-Selitto paw-withdrawal test; assay type: in vivo, rat; details: for Mechanical hyperalgesia (PWT): FIG. 18
# Experimental: (§1) The nociceptive flexior reflex was quantified on lightly restrained rats by using a Basile Analgesymeter (Randall-Selitto test). Inflammatory hyperlagesia was induced by injection of Carr (1%, 5 uL, i.d.), which was injected unilaterally to the dorsum of the hindpaw one-hour prior to compound administration. The εPKC inhibitor peptide (εV1-2) was injected via systemic routes.
# as §1, with “μL,” for “uL,”, “one-hr” for “one-hour”
# The rat carrageenan model has been extensively used to evaluate the response to modulators of inflammatory pain. In the model used for the studies described below, a single 5 microL injection of a 1% solution of carrageenan into the plantar surface of the right hindpaw was used to elicit an inflammatory response resulting in local edema and mechanical hyperalgesia. The mechanical hyperalgesia was quantitated as previously described using measurements of the nociceptive flexion reflex (Randall-Selitto paw-withdrawal test) in response to mechanical painful stimulation at the site of carrageenan injection. […] In the absence of further treatment, the PWT remained stable at ˜55 g for several hours, making it possible to use this model to evaluate the time-course of the response to treatment over the course of at least six hours after the establishment of the disease state.
# [5] = system: spared nerve pain; test: Single spared nerve model; assay type: in vivo; details: preliminary, doses similar to carrageenan model
# Description: While experiments with these models are continuing, additional work is being done in other pain models.
substance,measurement,setting,value
Ac-EAVSLKPTGGYGRKKRRQRRR-NH2 [KAI-1678],Steady state plasma concentration,[1]; 2-hr intravenous infusion at 50 mcg/kg/hr,10 to 20 ng/mL
same,half-life,"[1]; rat, in vivo, iv, intravenous infusion, read-out: Terminal half-life",~25 min
same,"Tissue level, Dose Site Muscle, Mean","[2]; Animal 4001, male",111 ng KAI-1678/g tissue
same,"Tissue level, Dose Site Skin, Mean","[2]; Animal 4001, male",1139 ng KAI-1678/g tissue
same,"Tissue level, Kidney, Mean","[2]; Animal 4001, male",689 ng KAI-1678/g tissue
same,"Tissue level, Liver, Mean","[2]; Animal 4001, male",224 ng KAI-1678/g tissue
same,"Tissue level, Lung, Mean","[2]; Animal 4001, male",254 ng KAI-1678/g tissue
same,"Tissue level, Peripheral Nerve, Mean","[2]; Animal 4001, male",429 ng KAI-1678/g tissue
same,"Tissue level, Skeletal Muscle, Mean","[2]; Animal 4001, male",133 ng KAI-1678/g tissue
same,"Tissue level, Spinal Cord, Mean","[2]; Animal 4001, male",11 ng KAI-1678/g tissue
same,"Tissue level, Brain, Mean","[2]; Animal 4001, male, includes a data point below limit of quantitation",6* ng KAI-1678/g tissue
same,"Tissue level, Brain, Mean","[2]; Animal 4501, female",7 ng KAI-1678/g tissue
same,"Tissue level, Dose Site Muscle, Mean","[2]; Animal 4501, female",1003 ng KAI-1678/g tissue
same,"Tissue level, Dose Site Skin, Mean","[2]; Animal 4501, female",6165 ng KAI-1678/g tissue
same,"Tissue level, Kidney, Mean","[2]; Animal 4501, female",3054 ng KAI-1678/g tissue
same,"Tissue level, Liver, Mean","[2]; Animal 4501, female",1505 ng KAI-1678/g tissue
same,"Tissue level, Lung, Mean","[2]; Animal 4501, female",1364 ng KAI-1678/g tissue
same,"Tissue level, Peripheral Nerve, Mean","[2]; Animal 4501, female",155 ng KAI-1678/g tissue
same,"Tissue level, Skeletal Muscle, Mean","[2]; Animal 4501, female",33 ng KAI-1678/g tissue
same,"Tissue level, Spinal Cord, Mean","[2]; Animal 4501, female",140 ng KAI-1678/g tissue
same,Clearance from systemic circulation / plasma level after end of infusion,"[2]; subcutaneous infusion over 5 days, 3, 8 and 25 mg/kg/day",rapidly cleared from the systemic circulation; also recorded: declined quickly upon cessation of infusion
same,Levels in brain and spinal cord,"[2]; subcutaneous infusion over 5 days, end of infusion",consistently low
same,Clearance from systemic circulation,[3]; intravenous bolus,rapidly cleared from systemic circulation
same,level at 1 h,"[3]; male, rat, plasma, sc, 19 ug/kg/hr, subcutaneous infusion 19 mcg/kg/hr, by 60 minutes, read-out: Steady state plasma concentration",~0.003 µg/mL
same,Tmax,"[3]; male, rat, plasma, sc, subcutaneous bolus, read-out: Time of maximum plasma concentration (converted)",~10 min
same,half-life,"[3]; rat, in vivo, iv, 300 ug/kg, IV bolus ~300 mcg/kg, preliminary, read-out: Terminal half-life",~38 min
same,half-life,"[3]; rat, in vivo, iv, IV bolus ~300 mcg/kg, preliminary, read-out: Terminal half-life",~38 min
same,half-life,"[3]; rat, in vivo, iv, IV bolus ~3,000 mcg/kg, preliminary, read-out: Terminal half-life",~66 min
same,half-life,"[3]; rat, in vivo, iv, intravenous bolus, read-out: Terminal half-life",~50 min
same,half-life,"[3]; rat, in vivo, sc, 800 ug/kg, subcutaneous bolus approximately 80 and 800 mcg/kg, read-out: Terminal half-life",~35 min
same,half-life,"[3]; rat, in vivo, sc, subcutaneous infusion, read-out: Half-life after end of infusion",~30 min
same,Cmax,"[3]; rat, in vivo, sc, subcutaneous infusion 190 mcg/kg/hr for 2 hours",~0.06 µg/mL
same,bioavailability,"[3]; rat, in vivo, sc, subcutaneous route vs intravenous bolus",~10%
same,Dose proportionality of exposure,"[3]; subcutaneous bolus (80, 800 mcg/kg) or infusion (19, 190 mcg/kg/hr)",dose-proportional increases in exposures
same,Half-life after end of infusion,[3]; subcutaneous infusion,~45 min
same,Time of maximum plasma concentration,[3]; subcutaneous infusion,~1 h
same,Ability to reverse mechanical hyperalgesia in sympathectomized animals,"[4]; 25 mcg/kg/hr subcutaneous infusion, contralateral hindlimb, FIG. 24",abrogated
same,Carrageenan-induced mechanical hyperalgesia after sciatic and saphenous nerve transection,"[4]; 25 mcg/kg/hr subcutaneous infusion, contralateral limb, proximal or distal to transection, FIG. 23","effective at eliminating carrageenan-induced mechanical hyperalgesia when the site of compound administration was proximal, but not distal, to the site of nerve transection"
same,Carrageenan-induced mechanical hyperalgesia,"[4]; IV infusion, rates as high as 1000 mcg/kg/hr for as long as 5 hours, FIG. 22",had no effect on carrageenan-induced mechanical hyperalgesia
same,Mechanical hyperalgesia (PWT),"[4]; intradermal 10 mcg/kg, ipsilateral hindpaw",completely reverse the mechanical hyperalgesia
same,Mechanical hyperalgesia (PWT),"[4]; intradermal 10 or 100 mcg/kg, contralateral hindpaw",completely reverse the mechanical hyperalgesia
same,Time to complete reversal of mechanical hyperalgesia,"[4]; intradermal 100 mcg/kg, ipsilateral",≤ 5 min
same,Mechanical hyperalgesia (PWT),"[4]; intradermal 100 mcg/kg, ipsilateral hindpaw",increasing the PWT beyond the pre-carrageenan levels
same,Lowest dose completely reversing mechanical hyperalgesia,"[4]; subcutaneous bolus, contralateral hindlimb, for a short period",0.1 µg/kg
same,Pain response (mechanical hyperalgesia),"[4]; subcutaneous bolus, thigh of contralateral hindlimb, FIG. 19",dose-dependent suppression in the pain response
same,Reversal of pain,[4]; subcutaneous infusion 250 mcg/kg/hr,rapid and sustained without any recurrence of hyperalgesia
same,Effect on mechanical hyperalgesia,"[4]; subcutaneous infusion 25,000 mcg/kg/hr, data not shown",comparable to that seen with the 250 mcg/kg/hr infusion
same,"Mechanical hyperalgesia, first phase of subcutaneous infusion","[4]; subcutaneous infusion, first phase approximately one hour, FIG. 21",rapid and complete reversal of the mechanical hyperalgesia at all doses tested
same,Dose rate completely reversing mechanical hyperalgesia in second phase,"[4]; subcutaneous infusion, second phase two to three hours after start",≥ 25 µg/kg/h
same,Activity in single spared nerve model,[5],also active in these models
